Test results from patent publication US10774084B2, “Adenine derivatives and their use as UV-photoprotective agents” (UNIVERZITA PALACKEHO V OLOMOUCI, priority 2015, dated 2020).

Columns and labels:
ROS production = test: UVA-induced ROS production in NHDF (H2DCFDA); assay type: cell-based, human
Source text: Normal human dermal fibroblasts (NHDF) were used as an in vitro model. Cells were isolated from tissue specimens obtained from healthy patients undergoing plastic surgery at the Department of Plastic and Aesthetic Surgery (University Hospital Olomouc). The use of skin tissue was in accordance with the Ethics Committee of the University Hospital and Faculty of Medicine and Dentistry, Palacky University, Olomouc and all patients signed written informed consent. Fibroblasts were used between the 2nd and 4th passage. […]
Test compounds included 6-(tetrahydrofuran-2-ylmethylamino)-9-(tetrahydrofuran-2-yl)purine and positive control (rosmarinic acid). […] Intensity of UVA radiation was evaluated before each irradiation by UVA-meter. […] After 1 hour (37° C., 5% CO2) cell damage was evaluated by analysis of reactive oxygen species (ROS) production. In parallel, intracellular levels of glutathion (GSH) were measured 4 hours (37° C., 5% CO2) after UVA application.
ROS production was evaluated by 2,7-Dichlorodihydrofluorescein diacetate (H2DCFDA). […] Samples were applied on 96-well plate and fluorescence was measured (488/525 nm) (INFINITE M200, Tecan, Switzerland) after centrifugation (10 000 rpm, 4° C., 10 min). Protein content was analyzed spectrophotometrically by bicinchoninic acid at 562 nm (INFINITE M200, Tecan, Switzerland). […]

HaCaT = test: In vitro UVA/UVB photoprotection test on HaCaT; assay type: cell-based, human
Procedure: Spontaneously Immortalized Aneuploid Human Keratinocyte Cell Line (HaCaT) was bought from CLS (Eppeheim, Germany) and used as an in vitro model. For all experiments the keratinocytes were seeded onto 96-well plates at a density of 1.6×10^5 cells/ml (0.2 ml per well) of growth medium (DMEM supplemented with fetal bovine serum (10%), penicillin ([…]) and streptomycin (100 U/ml)).
Test substances included compounds number 3, 9, 15 and 20. Compounds were dissolved in DMSO and then diluted in serum free medium (DMEM supplemented penicillin ([…]) and streptomycin (100 U/ml)). After 24 h incubation was growth medium changed to serum free medium containing test compounds. The final applied concentration range was 3.9-31.25 μmol/l. As a control, serum free medium supplemented with appropriate concentration of DMSO (0.5%, v/v) was used. Rosmarinic acid was used as positive control. After 60 minutes incubation with test compounds medium was discarded, cells were washed two-times with PBS and PBS supplemented with glucose (1 mg/ml) was applied. To study UVA photoprotection, a plate was exposed to a cytotoxic dose of UVA radiation (10 J/cm2) using a solar simulator SOL 500 (Dr. Hoenle Technology, Germany) equipped with a H1 filter transmitting wavelengths of 320-400 nm. To study UVB photoprotection, a plate was exposed to a cytotoxic dose of UVB radiation (150 mJ/cm2) using the solar simulator equipped with a H2 filter transmitting wavelengths of 295-320 nm. Intensity of UVA or UVB radiation was evaluated before each irradiation by UVA- or UVB-meter. Control (non-irradiated) plates were for the period of irradiation incubated in dark. After UVA or UVB exposure PBS with glucose was discarded and serum free medium was applied. After 24 hours (37° C., 5% CO2) cell damage was evaluated by neutral red (NR) incorporation into viable cells. Medium was discarded and NR solution (0.03% w/v, PBS) was applied. After 60 minutes NR solution was discarded, cells were fixed with a mixture of formaldehyde (0.5%, v/v) and CaCl2 (1%, m/v) in ratio 1:1 and then NR was dissolved in methanol (50%, v/v) with acetic acid (1%, v/v).
After 5 minutes of intensive shaking absorbance was measured at 540 nm. Experiments were performed in four independent repetitions with use of […] to minimize individual sensitivity of donor cells. Photoprotective effect was evaluated by comparison of experimental data (absorbance) of test compounds with a positive control and a negative control (according to the following equation: […]
As . . . absorbance of sample (cells pre-incubated with test compounds in serum free medium and irradiated)
Anc . . . absorbance of negative control (cells pre-incubated with s DMSO in serum free medium and non-irradiated=incubated in dark)
Apc . . . absorbance of positive control (cells pre-incubated with s DMSO in serum free medium and irradiated)

[1] = Table 17: UVA-induced damage (10 J/cm2), 3.9 μmol/l
[2] = Table 17: UVA-induced damage (10 J/cm2), 7.8 μmol/l
[3] = Table 17: UVA-induced damage (10 J/cm2), 15.6 μmol/l
[4] = Table 17: UVA-induced damage (10 J/cm2), 31.3 μmol/l
[5] = Table 18: titled UVA-induced damage, 3.9 μmol/l
[6] = Table 18: titled UVA-induced damage, 7.8 μmol/l
[7] = Table 18: titled UVA-induced damage, 15.6 μmol/l
[8] = Table 18: titled UVA-induced damage, 31.3 μmol/l

## c1nc(NCC2CCCO2)c2ncn(C3CCCO3)c2n1 (stereo not shown) [Compound 1, 6-(tetrahydrofuran-2-ylmethylamino)-9-(tetrahydrofuran-2-yl)purine]
ROS production; UVA, NHDF
  protection against production of ROS in comparison with rosmarinic acid (in words): more effective
ROS production; non-irradiated NHDF, 2.5-20 μmol/l
  effect on ROS production in non-irradiated cells (in words): did not showed negative effect

## OCc1ccc(CNc2ncnc3c2ncn3C2CCCO2)o1 (stereo not shown) [Compound 3, 6-(5-hydroxymethylfuran-2-ylmethylamino)-9-(tetrahydrofuran-2-yl)purine]
HaCaT; [1]
  Protection (%): 26.8%
HaCaT; [2]
  Protection (%): 34.3%
HaCaT; [3]
  Protection (%): 46.0%
HaCaT; [4]
  Protection (%): 50.7%
HaCaT; [5]
  Protection (%): 27.3%
HaCaT; [6]
  Protection (%): 46.5%
HaCaT; [7]
  Protection (%): 47.8%
HaCaT; [8]
  Protection (%): 53.8%

## c1csc(CNc2ncnc3c2ncn3C2CCCO2)c1 (stereo not shown) [Compound 9, 6-(thiophen-2-ylmethylamino)-9-(tetrahydrofuran-2-yl)purine]
HaCaT; [1]
  Protection (%): 72.1%
HaCaT; [2]
  Protection (%): 70.3%
HaCaT; [3]
  Protection (%): 66.8%
HaCaT; [4]
  Protection (%): 61.4%
HaCaT; [5]
  Protection (%): 48.8%
HaCaT; [6]
  Protection (%): 56%
HaCaT; [7]
  Protection (%): 55.7%
HaCaT; [8]
  Protection (%): 56.5%

## Clc1nc(NCc2ccco2)c2ncn(C3CCCO3)c2n1 (stereo not shown) [Compound 15, 2-chloro-6-furfurylamino-9-(tetrahydrofuran-2-yl)purine]
HaCaT; [1]
  Protection (%): 41.2%
HaCaT; [2]
  Protection (%): 56.9%
HaCaT; [3]
  Protection (%): 55.3%
HaCaT; [4]
  Protection (%): 76.7%
HaCaT; [5]
  Protection (%): 12.3%
HaCaT; [6]
  Protection (%): 35.3%
HaCaT; [7]
  Protection (%): 37.8%
HaCaT; [8]
  Protection (%): 51.3%

## Clc1nc(NCC2CCCO2)c2ncn(C3CCCO3)c2n1 (stereo not shown) [Compound 20, 2-chloro-6-(tetrahydrofuran-2-ylmethylamino)-9-(tetrahydrofuran-2-yl)purine]
HaCaT; [1]
  Protection (%): 12.3%
HaCaT; [2]
  Protection (%): 25.0%
HaCaT; [3]
  Protection (%): 28.9%
HaCaT; [4]
  Protection (%): 31.6%
HaCaT; [5]
  Protection (%): 45.7%
HaCaT; [6]
  Protection (%): 66.2%
HaCaT; [7]
  Protection (%): 64%
HaCaT; [8]
  Protection (%): 75.2%
